# Results as given in patent US12479847B2 (DANA-FARBER CANCER INSTITUTE, INC., priority 2019, dated 2025).
# How the values were obtained:
# Assay in all cases: KINOMEscan (ScanMAX) kinase profiling
# Format in all cases: binding
# panel of 468 kinases [1] = biological target: T1, panel of 468 kinases (Homo sapiens, UniProt P30530); conditions: AXL; 1 μM; read-out: % control
# T1 construct: purchased KINOMEscan (ScanMAX) service
# T1 sequence (P30530 26-894): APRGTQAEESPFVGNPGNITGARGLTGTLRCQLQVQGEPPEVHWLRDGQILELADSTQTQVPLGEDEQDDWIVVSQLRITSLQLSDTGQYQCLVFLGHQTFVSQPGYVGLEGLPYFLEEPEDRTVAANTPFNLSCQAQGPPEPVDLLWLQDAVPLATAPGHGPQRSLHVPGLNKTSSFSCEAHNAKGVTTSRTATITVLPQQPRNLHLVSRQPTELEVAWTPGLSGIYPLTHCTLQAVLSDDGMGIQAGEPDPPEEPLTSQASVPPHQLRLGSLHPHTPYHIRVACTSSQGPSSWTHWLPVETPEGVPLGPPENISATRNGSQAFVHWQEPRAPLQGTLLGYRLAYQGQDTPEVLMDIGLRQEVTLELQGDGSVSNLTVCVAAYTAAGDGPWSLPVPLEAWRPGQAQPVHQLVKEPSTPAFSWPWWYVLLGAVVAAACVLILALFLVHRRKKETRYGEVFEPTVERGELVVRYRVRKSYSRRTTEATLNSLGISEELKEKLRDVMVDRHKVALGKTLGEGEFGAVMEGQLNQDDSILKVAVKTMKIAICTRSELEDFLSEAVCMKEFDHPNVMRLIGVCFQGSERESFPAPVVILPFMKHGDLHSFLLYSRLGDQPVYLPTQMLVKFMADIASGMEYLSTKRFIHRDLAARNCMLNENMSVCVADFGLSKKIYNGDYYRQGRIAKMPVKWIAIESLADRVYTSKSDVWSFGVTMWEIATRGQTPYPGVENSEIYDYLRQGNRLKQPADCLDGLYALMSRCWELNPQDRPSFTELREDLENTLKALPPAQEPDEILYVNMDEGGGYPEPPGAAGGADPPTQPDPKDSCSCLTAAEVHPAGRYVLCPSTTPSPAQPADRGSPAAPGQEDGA
# panel of 468 kinases [2] = biological target: T2, panel of 468 kinases (Homo sapiens, UniProt P21709); conditions: EPHA1; 1 μM; read-out: % control
# T2 construct: purchased KINOMEscan (ScanMAX) service
# T2 sequence (P21709 26-976): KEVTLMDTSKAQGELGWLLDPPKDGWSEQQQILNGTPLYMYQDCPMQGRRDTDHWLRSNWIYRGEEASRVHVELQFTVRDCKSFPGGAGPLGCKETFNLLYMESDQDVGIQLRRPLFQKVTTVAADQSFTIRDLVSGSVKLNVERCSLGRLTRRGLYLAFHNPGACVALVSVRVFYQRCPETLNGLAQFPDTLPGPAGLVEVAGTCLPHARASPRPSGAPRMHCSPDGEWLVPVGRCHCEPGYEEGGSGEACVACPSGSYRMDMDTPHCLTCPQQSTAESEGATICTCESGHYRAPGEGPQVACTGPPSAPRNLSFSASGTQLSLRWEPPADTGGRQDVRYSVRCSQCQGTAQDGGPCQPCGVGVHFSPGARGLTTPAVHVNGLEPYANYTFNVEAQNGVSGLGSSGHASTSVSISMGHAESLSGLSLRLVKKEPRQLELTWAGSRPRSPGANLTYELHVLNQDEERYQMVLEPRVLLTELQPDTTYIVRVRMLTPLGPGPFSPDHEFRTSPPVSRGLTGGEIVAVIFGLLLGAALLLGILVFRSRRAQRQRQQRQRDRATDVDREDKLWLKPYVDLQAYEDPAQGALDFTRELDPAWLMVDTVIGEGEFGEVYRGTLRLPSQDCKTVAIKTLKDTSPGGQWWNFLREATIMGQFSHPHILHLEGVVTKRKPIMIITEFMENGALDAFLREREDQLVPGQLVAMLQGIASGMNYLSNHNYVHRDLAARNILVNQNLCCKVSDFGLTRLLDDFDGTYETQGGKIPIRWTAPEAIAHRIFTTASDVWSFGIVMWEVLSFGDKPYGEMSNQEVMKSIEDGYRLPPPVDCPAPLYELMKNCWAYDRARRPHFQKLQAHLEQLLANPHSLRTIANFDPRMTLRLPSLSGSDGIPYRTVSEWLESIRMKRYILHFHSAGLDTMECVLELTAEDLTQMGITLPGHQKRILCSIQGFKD
# panel of 468 kinases [3] = biological target: T3, panel of 468 kinases (Homo sapiens, UniProt Q15831); conditions: LKB1; 1 μM; read-out: % control
# T3 construct: purchased KINOMEscan (ScanMAX) service
# T3 sequence (Q15831 1-433): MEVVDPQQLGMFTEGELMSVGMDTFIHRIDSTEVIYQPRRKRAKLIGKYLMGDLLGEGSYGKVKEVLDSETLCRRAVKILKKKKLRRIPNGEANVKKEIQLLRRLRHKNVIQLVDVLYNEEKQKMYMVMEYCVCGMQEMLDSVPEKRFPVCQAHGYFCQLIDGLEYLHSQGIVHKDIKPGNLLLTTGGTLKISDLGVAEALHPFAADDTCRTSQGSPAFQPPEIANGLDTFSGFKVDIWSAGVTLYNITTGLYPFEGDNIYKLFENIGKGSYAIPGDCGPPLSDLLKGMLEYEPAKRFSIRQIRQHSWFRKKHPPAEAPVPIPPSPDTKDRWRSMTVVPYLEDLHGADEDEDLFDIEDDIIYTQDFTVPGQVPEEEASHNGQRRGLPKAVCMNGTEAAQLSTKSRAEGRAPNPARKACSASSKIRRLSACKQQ
# panel of 468 kinases [4] = biological target: T4, panel of 468 kinases (Homo sapiens, UniProt P42336, M1043I); conditions: PIK3CA(M1043I); 1 μM; read-out: % control
# T4 construct: purchased KINOMEscan (ScanMAX) service
# T4 sequence (P42336 whole entry M1043I): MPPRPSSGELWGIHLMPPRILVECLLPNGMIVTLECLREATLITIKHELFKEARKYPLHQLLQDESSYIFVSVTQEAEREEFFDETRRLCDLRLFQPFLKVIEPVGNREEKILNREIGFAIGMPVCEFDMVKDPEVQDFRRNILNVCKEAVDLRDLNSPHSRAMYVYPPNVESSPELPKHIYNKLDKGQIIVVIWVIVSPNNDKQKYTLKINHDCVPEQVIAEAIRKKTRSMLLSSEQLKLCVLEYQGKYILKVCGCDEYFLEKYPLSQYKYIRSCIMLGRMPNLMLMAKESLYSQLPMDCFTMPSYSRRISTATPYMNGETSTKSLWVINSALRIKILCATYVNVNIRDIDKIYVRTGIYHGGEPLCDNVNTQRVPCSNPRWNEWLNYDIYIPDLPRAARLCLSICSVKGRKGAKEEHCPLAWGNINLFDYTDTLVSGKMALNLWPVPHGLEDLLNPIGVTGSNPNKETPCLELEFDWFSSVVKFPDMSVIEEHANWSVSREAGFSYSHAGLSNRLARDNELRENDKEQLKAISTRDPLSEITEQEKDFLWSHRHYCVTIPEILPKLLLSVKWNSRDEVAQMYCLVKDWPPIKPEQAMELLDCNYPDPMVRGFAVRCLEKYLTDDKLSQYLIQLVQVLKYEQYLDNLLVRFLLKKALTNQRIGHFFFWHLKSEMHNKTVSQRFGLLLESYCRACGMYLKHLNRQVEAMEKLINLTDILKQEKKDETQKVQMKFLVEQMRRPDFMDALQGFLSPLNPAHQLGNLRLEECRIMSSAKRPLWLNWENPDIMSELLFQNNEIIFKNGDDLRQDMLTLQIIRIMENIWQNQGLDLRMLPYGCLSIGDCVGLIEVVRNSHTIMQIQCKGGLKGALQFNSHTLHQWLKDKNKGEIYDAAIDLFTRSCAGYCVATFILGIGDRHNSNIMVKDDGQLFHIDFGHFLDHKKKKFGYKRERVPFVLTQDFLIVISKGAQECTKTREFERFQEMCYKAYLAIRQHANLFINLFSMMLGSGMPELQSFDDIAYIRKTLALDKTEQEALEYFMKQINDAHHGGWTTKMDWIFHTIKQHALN
# panel of 468 kinases [5] = biological target: T5, panel of 468 kinases (Homo sapiens, UniProt P36894); conditions: BMPR1A; 1 μM; read-out: % control
# T5 construct: purchased KINOMEscan (ScanMAX) service
# T5 sequence (P36894 24-532): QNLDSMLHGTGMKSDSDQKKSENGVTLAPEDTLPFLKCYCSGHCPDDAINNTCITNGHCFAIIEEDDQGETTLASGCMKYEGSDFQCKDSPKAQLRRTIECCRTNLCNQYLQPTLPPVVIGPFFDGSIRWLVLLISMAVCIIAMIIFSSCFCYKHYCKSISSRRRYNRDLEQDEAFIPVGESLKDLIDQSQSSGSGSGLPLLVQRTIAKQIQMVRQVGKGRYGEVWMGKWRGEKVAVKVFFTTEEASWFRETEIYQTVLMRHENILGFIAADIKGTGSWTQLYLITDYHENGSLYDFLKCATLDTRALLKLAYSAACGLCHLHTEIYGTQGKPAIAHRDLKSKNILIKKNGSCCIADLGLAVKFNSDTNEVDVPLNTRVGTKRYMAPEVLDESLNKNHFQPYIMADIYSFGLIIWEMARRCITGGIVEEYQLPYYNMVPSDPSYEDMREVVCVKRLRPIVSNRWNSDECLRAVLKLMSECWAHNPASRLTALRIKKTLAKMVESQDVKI
SMILES,remaining binding at 1 µM (panel of 468 kinases [1]) [%],remaining binding at 1 µM (panel of 468 kinases [2]) [%],remaining binding at 1 µM (panel of 468 kinases [3]) [%],remaining binding at 1 µM (panel of 468 kinases [4]) [%],remaining binding at 1 µM (panel of 468 kinases [5]) [%]
"CNc1nc(Nc2ccc(S(=O)(=O)N3CCC(N4CCOCC4)CC3)cc2OC)nc2[nH]cc(Cl)c12 [Compound 12, 5-chloro-N2-(2-methoxy-4-((4-morpholinopiperidin-1-yl)sulfonyl)phenyl)-N4-methyl-7H-pyrrolo[2,3-d]pyrimidine-2,4-diamine]",100,100,100,98,96
"CNc1nc(Nc2ccc(C(=O)N3CCC(N4CCOCC4)CC3)c3c2OCO3)nc2[nH]cc(Cl)c12 [Compound 75, (7-((5-chloro-4-(methylamino)-7H-pyrrolo[2,3-d]pyrimidin-2-yl)amino)benzo[d][1,3]dioxol-4-yl)(4-morpholinopiperidin-1-yl)methanone]",63,100,100,99,85
"CNc1nc(Nc2ccc(P3(=O)CCN(C4CCOCC4)CC3)cc2OC)nc2[nH]cc(Cl)c12 [Compound 77, 4-(4-((5-chloro-4-(methylamino)-7H-pyrrolo[2,3-d]pyrimidin-2-yl)amino)-3-methoxyphenyl)-1-(tetrahydro-2H-pyran-4-yl)-1,4-azaphosphinane 4-oxide]",93,100,100,96,96
